Where two headings read alike, the source gives them in different places. Each block holds one compound with its values, some of them ahead of it.
Assays:
AMPK = test: Effect of adenosine kinase and transport inhibitors on AMPK activation in HepG2 cells; assay type: cell-based, human; details: 1 μM ABT-702 or 0.5 μM dipyridamole; for effect of cordycepin to activate and phosphorylate AMPK: 300 μM cordycepin 1 h; for effects of AICA riboside on AMPK: 3 mM AICAR 1 h
Description: Endogenous AMPK in crude cell lysates was first immunoprecipitated using an equal mixture of anti-α1 and –α2 antibodies (150 μg protein) by incubation at 4°C for 2 hr on a roller mixer. After extensive washing, the immunoprecipitates were assayed for AMPK activity (50 μg per assay, total assay volume 50 μl) using the AMARA peptide (200 μM) as substrate in the presence of 200 μM AMP, 5 mM MgCl2 and 200 μM [γ-^32P]ATP ([Fyffe et al., 2018]).

human α2β2γ1 complex [1] = molecular target: T1, human α2β2γ1 complex (Homo sapiens, UniProt P54619+P54646); test: AMPK assay using ATP or CoTP as co-substrate (GST-ACC1 phosphorylation); assay type: biochemical; details: for Km / estimated Vmax as phosphate donor: GST-ACC1 substrate; for Km: Mg2+ at constant 4.8 mM excess, read-out: Km as phosphate donor; for estimated Vmax as phosphate donor: Michaelis-Menten fit; for effect on allosteric activation by AMP: at high concentrations (5 mM); for allosteric activation: 30 μM AMP
T1 construct: made in house
T1 sequence (P54646 whole entry): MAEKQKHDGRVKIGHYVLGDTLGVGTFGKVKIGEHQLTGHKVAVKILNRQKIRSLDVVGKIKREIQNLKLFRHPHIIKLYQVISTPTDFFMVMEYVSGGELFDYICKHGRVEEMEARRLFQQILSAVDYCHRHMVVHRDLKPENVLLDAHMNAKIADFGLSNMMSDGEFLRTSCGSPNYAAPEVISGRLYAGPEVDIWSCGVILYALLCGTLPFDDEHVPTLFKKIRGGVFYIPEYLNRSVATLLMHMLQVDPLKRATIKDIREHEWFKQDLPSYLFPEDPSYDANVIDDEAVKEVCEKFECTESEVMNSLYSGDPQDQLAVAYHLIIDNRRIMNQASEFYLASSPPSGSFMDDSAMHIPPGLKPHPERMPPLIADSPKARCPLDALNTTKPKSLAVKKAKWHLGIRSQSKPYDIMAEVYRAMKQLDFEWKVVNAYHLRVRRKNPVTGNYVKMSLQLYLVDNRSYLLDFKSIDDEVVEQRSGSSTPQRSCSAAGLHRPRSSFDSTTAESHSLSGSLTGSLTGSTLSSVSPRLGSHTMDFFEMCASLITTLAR
T1 sequence (O43741 whole entry partner): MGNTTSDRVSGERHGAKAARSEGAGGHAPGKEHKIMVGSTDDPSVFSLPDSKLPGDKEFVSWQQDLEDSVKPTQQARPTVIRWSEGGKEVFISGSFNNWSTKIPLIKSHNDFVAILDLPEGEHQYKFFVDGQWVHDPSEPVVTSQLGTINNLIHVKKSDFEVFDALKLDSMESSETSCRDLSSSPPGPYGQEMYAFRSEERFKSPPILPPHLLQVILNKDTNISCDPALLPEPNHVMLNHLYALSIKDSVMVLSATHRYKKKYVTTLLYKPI
T1 sequence (P54619 whole entry): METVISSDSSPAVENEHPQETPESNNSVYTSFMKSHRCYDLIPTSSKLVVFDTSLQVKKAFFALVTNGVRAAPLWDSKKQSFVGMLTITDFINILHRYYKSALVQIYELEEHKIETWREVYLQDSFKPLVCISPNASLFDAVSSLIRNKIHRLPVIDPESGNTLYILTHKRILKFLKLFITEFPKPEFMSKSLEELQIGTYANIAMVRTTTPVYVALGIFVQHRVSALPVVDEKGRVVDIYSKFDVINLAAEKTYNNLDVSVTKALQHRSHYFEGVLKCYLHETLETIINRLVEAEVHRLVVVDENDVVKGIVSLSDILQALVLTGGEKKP
Description: As ^32P-labelled CoTP was not available, the experiments in Figures 3C and 3D were performed using non-radioactive CoTP and utilized as co-substrate a construct of glutathione-S-transferase fused at the N-terminus of residues 60-94 of rat ACC1 ([Scott et al., 2002]), which includes the Ser79 phosphorylation site. Bacterially expressed GST-ACC (0.5 μg) was incubated for 10 min in a total volume of 25 μl with bacterially expressed human AMPK (30 ng of α2β2γ1 complex, previously phosphorylated on Thr172 using CaMKK2) with ATP or CoTP as indicated, and sufficient MgCl2 to maintain a constant 4.8 mM excess of [Mg^2+] over [ATP]. Phosphorylation of this substrate was detected using anti-pACC antibody and quantified using a LiCor Odyssey imager.

[2] = tested on: AMPK purified from rat liver; test: Allosteric activation of purified rat liver AMPK (SAMS peptide, cell-free); assay type: biochemical
Description: AMPK (15 ng) purified from rat liver was assayed in solution using the SAMS peptide as substrate ([Fyffe et al., 2018]) in the presence of AMP or CoMP (concentrations specified in Figure legends), and either 5 mM MgCl2 and 200 μM [γ-^32P]ATP or 9.8 mM MgCl2 and 5 mM [γ-^32P]ATP, thus maintaining a constant excess of [Mg^2+] over [ATP] ([Storer and Cornish-Bowden, 1976]). Total assay volume was 25 μl.

[3] = molecular target: T2, AMPK complexes containing WT γ2 (Homo sapiens, UniProt Q9UGJ0); test: AMPK activity in anti-FLAG immunoprecipitates, HepG2 cells with FLAG-tagged WT AMPK-γ2; assay type: cell-based; details: 1 h, 300 μM cordycepin, 10 mM phenformin or 300 μM A-769662
T2 construct: expressed in transfected cells; host or cells: HepG2 (transient, Fugene 6)
T2 sequence (Q9UGJ0 whole entry, one chain of several): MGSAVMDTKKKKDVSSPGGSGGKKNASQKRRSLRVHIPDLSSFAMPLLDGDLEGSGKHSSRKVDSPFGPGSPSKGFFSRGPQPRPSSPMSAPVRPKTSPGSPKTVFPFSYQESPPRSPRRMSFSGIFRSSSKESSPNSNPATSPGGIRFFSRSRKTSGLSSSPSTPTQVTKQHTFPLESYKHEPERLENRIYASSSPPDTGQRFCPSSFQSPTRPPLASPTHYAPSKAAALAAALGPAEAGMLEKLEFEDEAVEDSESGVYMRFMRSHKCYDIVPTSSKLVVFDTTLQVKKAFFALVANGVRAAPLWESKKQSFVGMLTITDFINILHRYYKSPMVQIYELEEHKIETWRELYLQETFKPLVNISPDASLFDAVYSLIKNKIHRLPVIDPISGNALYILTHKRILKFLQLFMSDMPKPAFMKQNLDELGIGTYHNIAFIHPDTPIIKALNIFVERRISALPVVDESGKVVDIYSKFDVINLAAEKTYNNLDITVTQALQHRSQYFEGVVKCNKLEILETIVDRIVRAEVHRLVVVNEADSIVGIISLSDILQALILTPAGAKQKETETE
Description: (§1) HepG2 cells ([…]) were cultured in Minimum Essential Medium (MEM) supplemented with 10% (v/v) FBS, 1% (v/v) non-essential amino acids and 1% (v/v) penicillin/streptomycin. Transient transfection of DNAs encoding FLAG-tagged AMPK-γ2 or an R531G mutant of AMPK-γ2 were carried out 36-48 hr prior to experiments using Fugene 6 according to manufacturers’ instructions. U2OS cells ([…]) were cultured in Dulbecco’s Modified Eagle’s Medium (DMEM) supplemented with 10% (v/v) FBS and 1% (v/v) penicillin/streptomycin.
(§2) HepG2 cells were transiently transfected with DNAs encoding FLAG-tagged wild type AMPK-γ2 or the R531G mutant, using Fugene 6 according to the manufacturers’ instructions. After transfection for 48 hr, cells were treated with various agents as described, and cell lysates prepared ([Hawley et al., 2018]). FLAG-tagged AMPK was then immunoprecipitated from 150 μg total protein by incubation at 4°C for 2 hr on a roller mixer with 9 μl of EZview Red anti-FLAG M2 affinity gel. After extensive washing, the immunoprecipitates were assayed for AMPK activity (50 μg per assay in a total volume of 50 μl) using the AMARA peptide (200 μM) as substrate in the presence of 200 μM AMP, 5 mM MgCl2 and 200 μM γ-^32P-ATP as described previously ([Fyffe et al., 2018]).

[4] = molecular target: T3, AMPK complexes containing the R531G mutant (Homo sapiens, UniProt Q9UGJ0, R531G); test: AMPK activity in anti-FLAG immunoprecipitates, HepG2 cells with FLAG-tagged AMPK-γ2 R531G mutant; assay type: cell-based; details: 1 h, 300 μM cordycepin, 10 mM phenformin or 300 μM A-769662
T3 construct: expressed in transfected cells; host or cells: HepG2 (transient, Fugene 6)
T3 sequence (Q9UGJ0 whole entry R531G, one chain of several): as the sequence (Q9UGJ0 whole entry, one chain of several) above, with R531G counted along it
Description: as §1, §2

human α2β2γ1 complex [5] = molecular target: T1, human α2β2γ1 complex; test: Cell-free promotion of Thr172 phosphorylation by LKB1; assay type: biochemical; details: varying CoMP, 200 μM ATP
Description: These were as described previously ([Fyffe et al., 2018]) with some modifications. Bacterially expressed human AMPK (α2β2γ1 complex, unphosphorylated on Thr172, 500 ng) was incubated for 10 min in a total volume of 25 μl with 200 μM ATP, […] with/without the LKB1:STRAD:MO25 complex (10 ng), in the presence or absence of AMP (200 μM) or cordycepin as indicated. Aliquots were removed for Western blotting and AMPK assays.

rat liver AMPK = test: Cell-free inhibition of Thr172 dephosphorylation by PP2Cα; assay type: biochemical; details: fit of AMPK activity as a function of CoMP concentration; read-out: EC50 of protection against inactivation and Thr172 dephosphorylation by PP2Cα
Description: These were as described previously ([Fyffe et al., 2018]) with some modifications. Rat liver AMPK (12.5 μg/ml) was incubated in a shaking incubator at 30°C for 10 min in Hepes buffer (50 mM Na Hepes pH 7.4, 150 mM NaCl, 1 mM dithiothreitol, 0.02% (w/v) Brij-35) with MgCl2 and sufficient PP2Cα to yield about 70% inactivation in the absence of added nucleotide. Aliquots were removed for Western blotting and AMPK assay. Kinase assays were performed immediately after a further 100-fold dilution, which was sufficient to prevent dephosphorylation during the assay.

[6] = 200 μM ATP, for CoMP estimated with maximal activation constrained to 4.4-fold

- Km (human α2β2γ1 complex [1]): 36 ± 3 µM
- estimated Vmax as phosphate donor (human α2β2γ1 complex [1]): 1.02
- effect on allosteric activation by AMP (human α2β2γ1 complex [1]): antagonize
Compound: Nc1ncnc2c1ncn2[C@@H]1O[C@H](COP(=O)(O)OP(=O)(O)OP(=O)(O)O)[C@@H](O)[C@H]1O [ATP]

- activation of AMPK complexes containing WT γ2 [3]: activated
- activation of AMPK complexes containing the R531G mutant [4]: not activated
Compound: [H]/N=C(/N)N/C(=N/[H])NCCc1ccccc1 [phenformin]

- IC50 ([2]; 200 μM ATP, estimated, maximal activation constrained to 4.4-fold, read-out: IC50 of inactivation): 500 ± 180 µM
- EC50 [2, 6]: 120 ± 50 µM
- EC50 ([2]; 5 mM ATP, maximal activation constrained to 4.4-fold): 1400 µM
- activation and Thr172 phosphorylation of AMPK by LKB1 (human α2β2γ1 complex [5]): promoted
- EC50 (rat liver AMPK): 68 ± 12 µM
Compound: Nc1ncnc2c1ncn2[C@@H]1O[C@H](COP(=O)(O)O)C[C@H]1O [CoMP, cordycepin 5′-monophosphate]
- potency as an allosteric activator, less potent than AMP ([2]; 200 μM ATP): ≈ 30 fold

- activation of AMPK complexes containing WT γ2 [3]: activated
- activation of AMPK complexes containing the R531G mutant [4]: still activated
Compound: N#Cc1c(O)c2c(-c3ccc(-c4ccccc4O)cc3)csc2[nH]c1=O [A-769662]

Further lines, the compound ahead of its results:

Compound: Nc1ncnc2nc(-c3ccc(N4CCOCC4)nc3)cc(-c3cccc(Br)c3)c12 [ABT-702, 4-amino-5-(3-bromophenyl)-7-(6-morpholinopyridin-3-yl)pyrido[2,3-d]pyrimidine]
- effect of cordycepin to activate and phosphorylate AMPK (AMPK): blocked
- effects of AICA riboside on AMPK (AMPK): also blocked

Compound: Nc1ncnc2c1ncn2[C@@H]1O[C@H](COP(=O)(O)OP(=O)(O)OP(=O)(O)O)C[C@H]1O [CoTP, cordycepin triphosphate]
- Km (human α2β2γ1 complex [1]): 22 ± 3 µM
- estimated Vmax as phosphate donor (human α2β2γ1 complex [1]): 0.92
- effect on allosteric activation by AMP (human α2β2γ1 complex [1]): antagonize

Compound: Nc1ncnc2c1ncn2[C@@H]1O[C@H](COP(=O)(O)O)[C@@H](O)[C@H]1O [AMP, reference compound]
- maximal allosteric activation ([2]; 200 μM ATP): 4.4 ± 0.1 fold
- EC50 [2, 6]: 3.8 ± 0.2 µM
- IC50 ([2]; 200 μM ATP, read-out: IC50 (concentration giving half-maximal inhibition)): 1600 ± 100 µM
- allosteric activation (human α2β2γ1 complex [1]; ATP or CoTP concentrations increased to 5 mM): abolished
- allosteric activation (human α2β2γ1 complex [1]; kinase assayed using either 200 μM ATP or CoTP as substrate): 4 fold

Compound: OCCN(CCO)c1nc(N2CCCCC2)c2nc(N(CCO)CCO)nc(N3CCCCC3)c2n1 [dipyridamole]
- effect of cordycepin to activate and phosphorylate AMPK (AMPK): blocked
- effects of AICA riboside on AMPK (AMPK): also blocked

— PMC7031697, “Mechanism of Activation of AMPK by Cordycepin” (Cell Chemical Biology, 2020)
